Laboratory results reported in patent US12128044B2, “Fused tricyclic compounds and uses thereof in medicine” (SUNSHINE LAKE PHARMA CO., LTD., priority 2018, dated 2024).

Key:
HBsAg secretion = test: Inhibition of HBsAg secretion (ELISA) in HepG2.2.15 cells; format: cell-based; details: Hepatitis B virus, HepG2.2.15, read-out: Hbs Ag IC50
Excerpt: (§1) The chromosome of HepG2.2.15 cells integrates a complete HBV genome and stably expresses viral RNA and protein. HepG2.2.15 cells can secrete mature hepatitis B virus particles and HBsAg into culture medium. Virus particles DNA and HBsAg secreted by HepG 2.2.15 cells can be quantified by q-PCR and ELISA, and the effects of compounds on viral replication and HBsAg secretion can be detected.
(§2) HepG 2.2.15 cells were inoculated with 8,000 per cell to 96-well cell culture plates in duplicate, and were cultured for 3 days until the cells grew to full-hole. Cells were treated with 4-fold serial dilutions of compounds for 10 days, and were given alternately every other day. The final concentration of DMSO in all pores was 0.5% and DMSO was used as a drug-free control. The supernatant was collected for quantitative detection of HBsAg on day 11.
The level of HBsAg secreted by the compound after treatment is detected by ELISA method, and the method uses a hepatitis B surface antigen diagnostic kit (Shanghai Kehua Biotech Co., Ltd. S10910113). 25 μL of the supernatant to be assayed (PBS was diluted to 75 μL) was added to per well of the ELISA plate, positive control and negative control kit were set. ELISA plate was blocked with a cover paper, and incubated at 37° C. for 60 minutes. The ELISAplate was taken out, the seal was teared off, and 50 μL of enzyme conjugate was added to each well. The ELISA plate was oscillated on the shaker for 10 seconds, blocked with a cover paper and incubated at 37° C. for 30 minutes. The ELISA plate was taken out, the seal was teared off, and the ELISA plate was washed 5 times: each time the liquid in the hole was discarded, the washing liquid was filled into the holes, left to stand for 60 seconds, dried, and the liquid residue was patted on the absorbent paper. Immediately after the end of washing, a freshly prepared mixture of Developer A and Developer B was added to all wells: 100 μL per well. The ELISA plate was oscillated on the shaker for 10 seconds, blocked with a cover paper and incubated at 37° C. for 30 minutes. 50 μL of stop solution was added to all wells. Absorbance was read on the Envision plate reader at 450 nm. Concentration-HBsAg OD450 was processed using Graphpad Prism 5 software, and IC50 of Compounds Inhibiting Virus Replication was calculated by Four-parameter Nonlinear Regression Model.

HBV DNA replication = test: Inhibition of HBV virus replication (HBV DNA in supernatant, qPCR) in HepG2.2.15 cells; format: cell-based; details: Hepatitis B virus, 10 days treatment, supernatant day 11, qPCR
Excerpt: as §1
as §2, with “HBV DNA” for “HBsAg”
Viral genomic DNA was detected by qPCR method, and HBV primers were as follows: • HBV-For-202, […] (SEQ ID NO:1); • HBV-Rev-315, […](SEQ ID NO:2).
The SYBR Premix Ex Taq II-Takara DRR081S kit was used, and 1 μL of cell culture supernatant was used as a template. A standard curve was made using a plasmid containing the HBV genome, and the viral copy number was calculated using the standard curve. Concentration-virus copy number was processed using Graphpad Prism 5 software, and IC50 of Compounds Inhibiting Virus Replication was calculated by Four-parameter Nonlinear Regression Model.

[1] = Pharmacokinetic experiments in beagle dogs; format: in vivo
Experimental: Pharmacokinetic experiments of the compounds of the invention in beagle dogs (Body weight 10-12 kg, male, age 10-12 months, 3 per oral group, 3 per intravenous injection group) Test method:
Beagle was administered orally with 2.5 mg/kg or 5 mg/kg of the compound tested or intravenously injected with 1 mg/kg or 2 mg/kg of the compound tested.
After administration, venous blood was collected at time points (0.083, 0.25, 0.5, 1, 2, 4, 6, 8 and 24 hours) and collected in an anticoagulation tube with EDTA-K2. After liquid-liquid extraction, plasma samples were quantitatively analyzed by multiple reaction ion monitoring (MRM) on a triple quadrupole tandem mass spectrometer. Pharmacokinetic parameters were calculated using a noncompartmental method by WinNonLin 6.3 software.

Compound | IC50 (HBsAg secretion) [nM] | IC50 (HBV DNA replication) [nM] | further results
COc1cc2c(cc1-c1ccco1)CN(C(C)C)n1cc(C(=O)O)c(=O)cc1-2 [Example 1, 9-(furan-2-yl)-6-isopropyl-10-methoxy-2-oxo-6,7-dihydro-2H-pyrido[2,1-a]phthalazine-3-carb oxylic acid] | 4.27 | 2.68 | –
COc1cc2c(cc1-c1cccs1)CN(C(C)C)n1cc(C(=O)O)c(=O)cc1-2 [Example 2, 6-isopropyl-10-methoxy-2-oxo-9-(thiophen-2-yl)-6,7-dihydro-21H-pyrido[2,1-a]phthalazine-3-carboxylic acid] | 1.72 | 2.06 | –
COc1cc2c(cc1-c1nccs1)CN(C(C)C)n1cc(C(=O)O)c(=O)cc1-2 [Example 3, 6-isopropyl-10-methoxy-2-oxo-9-(thiazol-2-yl)-6,7-dihydro-2H-pyrido[2,1-a]phthalazine-3-carboxylic acid] | 3.26 | 1.71 | –
COc1cc2c(cc1-c1cnn(C(C)C)c1)CN(C(C)C)n1cc(C(=O)O)c(=O)cc1-2 [Example 4, 6-isopropyl-9-(1-isopropyl-1H-pyrazol-4-yl)-10-methoxy-2-oxo-6,7-dihydro-2H-pyrido[2,1-a]phthalazine-3-carboxylic acid] | 9.6 | 3.81 | –
COc1cc2c(cc1-c1cnn(C(F)F)c1)CN(C(C)C)n1cc(C(=O)O)c(=O)cc1-2 [Example 5, 9-(1-(difluoromethyl)-1H-pyrazole-4-yl)-6-isopropyl-10-methoxy-2-oxo-6,7-dihydro-2H-pyrido [2,1-a]phthalazine-3-carboxylic acid] | 14.3 | 7.3 | F ([1]; PO 5 mg/kg vs IV 1 mg/kg): 76.7%; AUC(0-inf) ([1]; male, dog, plasma, IV, 1 mg/kg): 17400 ng·h/mL; AUC(0-t) ([1]; male, dog, plasma, IV, 1 mg/kg): 16900 ng·h/mL; Cmax ([1]; male, dog, plasma, IV, 1 mg/kg): 2170 ng/mL; clearance ([1]; male, dog, plasma, IV, 1 mg/kg): 0.955 mL/min/kg; AUC(0-inf) ([1]; male, dog, plasma, PO, 5 mg/kg): 66700 ng·h/mL; AUC(0-t) ([1]; male, dog, plasma, PO, 5 mg/kg): 63300 ng·h/mL; Cmax ([1]; male, dog, plasma, PO, 5 mg/kg): 8710 ng/mL
COc1cc2c(cc1-c1cnn(C3CCC(F)(F)CC3)c1)CN(C(C)C)n1cc(C(=O)O)c(=O)cc1-2 [Example 7, 9-(1-(4,4-Difluorocyclohexyl)-1H-pyrazol-4-yl)-6-isopropyl-10-methoxy-2-oxo-6,7-dihydro-2H-pyrido[2,1-a]phthalazine-3-carboxylic acid] | 6.73 | 1.76 | –
COc1cc2c(cc1-c1cnn(C3CC(C)(C)OC(C)(C)C3)c1)CN(C(C)C)n1cc(C(=O)O)c(=O)cc1-2 [Example 8, 6-isopropyl-10-methoxy-2-oxo-9-(1-(2,2,6,6-tetramethyltetrahydro-2H-pyran-4-yl)-1H-pyrazole-4-yl)-6,7-dihydro-2H-pyrido[2,1-a]phthalazine-3-carboxylic acid] | 6.03 | 6.26 | –
COc1cc2c(cc1-c1cnn(C(C)C)c1)CN(C(C)(C)C)n1cc(C(=O)O)c(=O)cc1-2 [Example 13, 6-(tert-butyl)-9-(1-isopropyl-1H-pyrazol-4-yl)-10-methoxy-2-oxo-6,7-dihydro-2H-pyrido[2,1-a]phthalazine-3-carboxylic acid] | 0.97 | 0.7 | –
COc1cc2c(cc1-c1cnn(C(C)C)c1)CN(C1CC1)n1cc(C(=O)O)c(=O)cc1-2 [Example 14, 6-cyclopropyl-9-(1-isopropyl-1H-pyrazol-4-yl)-10-methoxy-2-oxo-6,7-dihydro-2H-pyrido[2,1-a]phthalazine-3-carboxylic acid] | < 0.24 | < 0.24 | –
COc1cc2c(cc1-c1cnn(C(C)C)c1)CN(C1CCC1)n1cc(C(=O)O)c(=O)cc1-2 [Example 15, 6-cyclobutyl-9-(1-isopropyl-1H-pyrazol-4-yl)-10-methoxy-2-oxo-6,7-dihydro-2H-pyrido[2,1-a]phthalazine-3-carboxylic acid] | 1.83 | 2.1 | –
COc1cc2c(cc1-c1cnn(C3CC3)c1)CN(C(C)C)n1cc(C(=O)O)c(=O)cc1-2 [Example 16, 9-(1-cyclopropyl-1H-pyrazole-4-yl)-6-isopropyl-10-methoxy-2-oxo-6,7-dihydro-2H-pyrido[2,1-a]phthalazine-3-carboxylic acid] | 6.11 | 2.74 | –
COc1cc2c(cc1-c1cnn(C3CCC3)c1)CN(C(C)C)n1cc(C(=O)O)c(=O)cc1-2 [Example 17, 9-(1-cyclobutyl-1H-pyrazole-4-yl)-6-isopropyl-10-methoxy-2-oxo-6,7-dihydro-2H-pyrido[2,1-a]phthalazine-3-carboxylic acid] | 4.07 | 2.82 | –
COc1cc2c(cc1-c1cnn(C3CCCC3)c1)CN(C(C)C)n1cc(C(=O)O)c(=O)cc1-2 [Example 18, 9-(1-cyclopentyl-1H-pyrazole-4-yl)-6-isopropyl-10-methoxy-2-oxo-6,7-dihydro-2H-pyrido [2,1-a]phthalazine-3-carboxylic acid] | 3.73 | 2.28 | –
COc1cc2c(cc1-c1cnn(C3CCOCC3)c1)CN(C(C)C)n1cc(C(=O)O)c(=O)cc1-2 [Example 19, 6-isopropyl-10-methoxy-2-oxo-9-(1-(tetrahydro-2H-pyran-4-yl)-1H-pyrazole-4-yl)-6,7-dihydro-2H-pyrido[2,1-a]phthalazine-3-carboxylic acid] | 7.82 | 3.98 | –
